Laboratory results taken from patent US12668646B2, “Cross-linking compounds and methods of use thereof” (North Carolina State University, priority 2019, dated 2026).
Several values for one entry are separate records, joined by “and”; a condition that tells them apart may be missing. Equal values may be shown once.

Tested on: β-glucosidase from almonds
Experiment: Indigogenic reaction with β-glucosidase from almonds
Format: biochemical
[1] = indoxyl 1 mM, enzyme 1 unit/mL, 0.01M acetate buffer pH 5, 5% DMF, 37° C., 16-19 h, ϵ = 1.27 × 10^4 M^−1 cm^−1 measured for 4

Yield (%) β-glucosidase from almonds [1] [%] | Molecule | Yield (%) β-glucosidase from almonds (as E1 but ϵ = 2.00 × 10^4 M^−1 cm^−1 reported for 5,5′-dibromo-4,4′-dichloroindigo)
<1 | COC(=O)COc1ccc2[nH]cc(O[C@@H]3O[C@H](CO)[C@@H](O)[C@H](O)[C@H]3O)c2c1 [Compound 22, 5-(Methoxycarbonyl)methoxy-1H-indol-3-yl β-D-glucopyranoside] | 
68 | COC(=O)COc1ccc2[nH]cc(O[C@@H]3O[C@H](CO)[C@@H](O)[C@H](O)[C@H]3O)c2c1Br [Compound 23, 4-Bromo-5-(methoxycarbonyl)methoxy-1H-indol-3-yl β-D-glucopyranoside] | 
<5 | C#CCOc1ccc2[nH]cc(O[C@@H]3O[C@H](CO)[C@@H](O)[C@H](O)[C@H]3O)c2c1 [Compound 25, 5-Propargyloxy-1H-indol-3-yl β-D-glucopyranoside] | 

The remaining lines, values behind:

Molecule | Yield (%) β-glucosidase from almonds [1] [%] | Yield (%) β-glucosidase from almonds (as E1 but ϵ = 2.00 × 10^4 M^−1 cm^−1 reported for 5,5′-dibromo-4,4′-dichloroindigo)
5-bromo-4-chloroindoxyl β-glucoside [Compound 42, reference compound] |  | 74% and 74^e %
C#CCOc1ccc2[nH]cc(O[C@@H]3O[C@H](CO)[C@@H](O)[C@H](O)[C@H]3O)c2c1Br [Compound 26, 4-Bromo-5-propargyloxy-1H-indol-3-yl β-D-glucopyranoside] | 56 | 
